Measurements published in paper PMC10279755 (Nature Communications, 2023).
Where two headings read alike, the source gives them in different places. Ends that are not written are not given here.

Assays:
[1] = system: aminopeptidase N (APN); assay: In vitro aminopeptidase N (APN) activity assay with Ala-MCA in HUVECs; format: cell-based, human; conditions: 100 μM Ala-MCA in PBS, curcumin 50 µM, 24 h, fluorescence λex 360 nm, λem 460 nm
Procedure: HUVEC cells were plated in a 96-well plate at a density of 5000 cells per well in 200 μL complete ECGM V2 media per well. After culturing for 24 h, cells were washed with 1X PBS two times. […] The release of fluorescent product 7-amino-4-methylcoumarin in the media was monitored on the plate reader (BioTek Cytation3 imaging reader) with λex of 360 nm and peak λem of 460 nm.

[2] = system: HUVECs; set-up: method as in earlier work; conditions: curcumin up to 100 µM, up to 72 h; ref Kumar et al. 1998; Do et al. 2022; Ouyang et al. 2019; Hosseini et al. 2019; Yuan et al. 2022; cited from earlier work
Excerpt: page 17: Reviewer #3 Specific Comment 1. I have one very major concern that should be experimentally addressed.

[3] = system: HUVECs (cell surface laminin receptor integrin); assay: In vitro study of biological function using fluorescent probe: rhodamine B-labeled peptide attachment to HUVECs (CTCF); format: cell-based, human
Procedure: HUVECs were plated at a density of 0.1 million cells per well in a 24-well plate with 0.5 mL complete ECGM per well and cultured for 24 h, followed by washing with 1× PBS three times and the addition of 950 μL serum-free ECGM per well. Rhodamine B labeled peptide solution (50 μL in serum-free ECGM, 1 mM) was mixed with 0.05% trypsin (5 μL). The mixed solution was then added to each well for a total volume of 1005 μL. Cells were incubated with the mixed solution for various time periods. At different time points (1 h up to 30 h), the media was removed, and cells were washed with PBS three times. Fresh PBS (500 μL) was added to the wells, and the plate was visualized by bright-field and fluorescence microscopy (Nikon Eclipse Ti−U) with TRITC filter set. The magnification was 20×. Corrected total cell fluorescence (CTCF) intensity was estimated using the equation CTCF = integrated density − (area of selected cell) × (mean fluorescence of background). A rectangular drawing/selection tool in ImageJ was used to select a desired region with fluorescence, and its integrated density and area were measured. […] Cell counts were 30 for each group from three separate wells.
The corrected total cell fluorescence (CTCF) was calculated as follows:1 2 CTCF = integrated density – (area of selected cell × mean fluorescence of background readings)
Supplementary Table 1. Statistics Data of CTCF at each timepoint measured from fluorescence images of Ac-E5G2KSYIGR-KRB with trypsin, and control peptides mentioned […]
Comparison Mean q P value […]
Group comparisons are indicated as determined by a one -way analysis of variance (ANOVA) with a Student−Newman−Keuls comparisons post hoc test. *** indicates p < 0.001, ** indicates p < 0.01, * indicates p < 0.05, and ns indicates no significance among indicated

[4] = system: trypsin; assay: trypsin (0.08 wt% total) in PBS buffer; conditions: 37 °C
[5] = target: T1, trypsin (Sus scrofa, UniProt P00761); assay: Trypsin cleavage of switch peptide followed by MALDI-TOF MS; format: biochemical
T1 construct: purchased VWR (Radnor, PA, USA)
T1 sequence (P00761 9-231): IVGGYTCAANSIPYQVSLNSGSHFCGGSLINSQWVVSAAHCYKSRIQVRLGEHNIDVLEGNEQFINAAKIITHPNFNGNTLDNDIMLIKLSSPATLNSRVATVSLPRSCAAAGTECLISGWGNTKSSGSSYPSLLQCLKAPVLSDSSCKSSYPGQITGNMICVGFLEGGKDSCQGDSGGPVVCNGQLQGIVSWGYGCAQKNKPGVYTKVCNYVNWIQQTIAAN
Procedure: We followed the kinetics of Lys residue cleavage by trypsin and functional peptide formation using MALDI-TOF mass spectrometry (MS). We tracked disappearance of the switch peptide peak and evolution of the intermediate or functional peptide peak (SYIGR or Ac-YIGSR; both have the same exact mass) after treatment with trypsin. […] After 3 h, the intensity of both signals was similar, and after 24 h the switch peptide signal disappeared completely, while the intermediate/functional peptide peak became dominant, indicating near-complete conversion.
Addition of the KRB unit created a new potential cleavage site for trypsin at the C-terminal side of the Arg residue (i.e., the R–KRB peptide bond). To ensure the desired response still occurred, i.e., cleavage of the K–SYIG peptide bond to remove the N-terminal Lys residue, we designed an experiment to follow the transformation of KSYIGRK as a representative peptide that contains two potential cleavage points, the desired K–SYIG peptide bond and the undesired R–K peptide bond. We treated this peptide with trypsin and followed bond cleavage at these two sites using MALDI-TOF MS. […] However, we envisioned that this undesired cleavage would not be a problem in cell studies because it would simply generate a KRB species that would be removed in washing steps.
Switch peptide solution (100 μL, 5 mg/mL in PBS) was mixed with 20 μL of a trypsin solution (0.25%) in a vial and placed at 37 °C in an incubator. Aliquots (2 μL) from each reaction solution were withdrawn at specific times, and trypsin was deactivated immediately by the addition of acetic acid (0.3 μL, 1 M in distilled water). Samples (0.8 μL) were then mixed with a matrix solution (0.8 μL, 0.02 M α-cyano-4-hydroxycinnamic acid dissolved in acetonitrile/methanol/water (1:1:1) with 0.1% formic acid) and deposited on a MALDI plate (Opti-TOF 384 Well, 123 × 81 mm). Samples were analyzed using a matrix-assisted laser desorption ionization−tandem time-of-flight mass spectrometer (4800 MALDI TOF/TOF, AB Sciex).

[6] = system: HUVECs; assay: Cell viability assay (CCK-8); format: cell-based, human
Procedure: HUVECs (ATCC catalog number PCS-100-010) were plated in a 96-well plate at a density of 5000 cells per well in 200 μL complete ECGM per well. After culturing for 24 h, the media was discarded and the cells were washed with 1X PBS three times before […] serum-containing ECGM media was added. Next, varying amounts of peptide stock solution (4 mM in PBS) were diluted to […] with PBS and added to the wells to make the final peptide concentrations ranging from 10 to 200 µM. After incubation for 24 h, cells were washed three times with PBS and then treated with serum-free ECGM media (100 μL). Next, 10 μL cell counting kit 8 solution (CCK-8, Dojindo, Rockville, MD) was added to each well. After incubation for another 3 h to allow for development of the CCK8 dye, absorbance was recorded at 450 and 750 nm using a BioTek Synergy Mx plate reader (BioTek, Winooski, VT). Worked-up data (absorbance at 750 nm subtracted from absorbance at 450 nm) were graphed using GraphPad InStat, version 3 (GraphPad Software, Inc., San Diego, CA). Mean values are reported together with the standard deviation (SD) representing the combination of 3 independent experimental runs with five replicates per experiment.

[7] = system: CD29 (integrin β1); assay: Immunofluorescence co-localization with CD29; format: cell-based, human; conditions: HUVECs, 50 µM peptide, 24 h, fixed, confocal microscopy, done once
Procedure: HUVEC cells were seeded in an 8-chamber glass slide (Lab-Tek Chamber Slide) at a density of 30,000 cells per well in 0.4 mL complete ECGM media per well. After culturing for 24 h, cells were washed twice with 1× PBS. The cells were then incubated with 395 μL of serum-free ECGM media […] in the following groups: Blank (5 μL PBS), and 4 mM Ac-YIGSR-KRB (5 μL in PBS, final concentration 50 µM). After incubation for 24 h, the media was removed, and cells were washed with PBS three times. Cultured cells were then fixed in 10% formalin for 5 min, then washed three times with PBS for 5 min each. Slides were blocked for 1 h with 2% cold water fish skin gelatin (Sigma, Inc., St. Louis, MO, USA) and 0.2% triton-X100 solution. Slides were then incubated in conjugated primary antibody diluted in blocking solution overnight at room temperature, then washed with PBS five times for 10 min each. The antibody used was FITC Armenian hamster anti-mouse/rat CD29 at a 1:50 dilution (Biolegend, San Diego, CA, USA; Catalog number 102205, clone HMbeta1-1), validated by the manufacturer by immunofluorescent staining with flow cytometric analysis. Finally, slides were mounted with DAPI Fluoromount-G (SouthernBiotech, Birmingham, AL, USA). Images were then obtained using a Nikon A1 Confocal Microscope with NIS Elements Imaging Software (Melville, New York, USA).

[8] = system: trypsin; assay: trypsin solution (0.25%) mixed with switch peptide solution in PBS; conditions: 37 °C, up to 24 h
[9] = switch peptide 5 mg/mL in PBS (100 μL) + 20 μL 0.25% trypsin, 37 °C

In the case of COc1cc(/C=C/C(=O)CC(=O)/C=C/c2ccc(O)c(OC)c2)ccc1O [curcumin], the “APN activity remaining with inhibitor” value [1] is given as ~ 25% and the “viability of HUVECs” value [2] is given as over 80%.

With “Ac-E5G2KSYIGRKRB (lariat or depsi) [Ac-E5G2KSYIGR-KRB, switch peptide labeled with the fluorescent probe rhodamine B]” the “fluorescence signal on HUVECs after washing (in words)” value (shortened to “fluorescence signal on HUVECs”) ([3]; with trypsin, 1 h) was “negligible fluorescent signal”, the “fluorescence signal on HUVECs” value ([3]; with trypsin, 30 h) was “strong signal” and the “fluorescence signal on HUVECs” value ([3]; without trypsin, 30 h) was “no fluorescence signal”.

With Ac-KSYIGRK the cleaved bond [4] was “K-S and R-K”.

For “Ac-KSYIGRK (also: lariat or depsi (positions not given here))”, the “trypsin cleavage at K–SYIG versus R–K peptide bond” value ([5]; trypsin, cleavage at either site but not both simultaneously) was “approximately the same rate”.

In the case of “Ac-KYIGR-KRB [fluorescence labeled peptide with YIG on the side chain, cannot undergo a switch; negative control]”, the “fluorescence signal on HUVECs” value ([3]; with trypsin, 30 h) is reported as “no fluorescence” and the “fluorescence signal on HUVECs” value ([3]; without trypsin, 30 h) is reported as “no fluorescence”.

With “Ac-YIGSR [functional cell-adhesive pentapeptide derived from the ECM protein laminin, reference compound]” the “cytotoxicity in cell viability studies” value ([6]; HUVECs, CCK-8, peptide up to 200 µM, 24 h) was “no cytotoxicity”.

In the case of “Ac-YIGSR-KRB [rhodamine B-labeled functional peptide, positive control]”, the “co-localization of rhodamine B-labeled peptide with anti-CD29-FITC stain” value [7] is reported as “colocalized with integrin β1” and the “fluorescence signal on HUVECs” value ([3]; without trypsin, 30 h) is reported as “strong fluorescence”.

In the case of “KSYIGR (also: lariat or depsi (positions not given here)) [non-functional depsipeptide; SYIG = Ser residue esterified with Ac-YIG; trypsin removes N-terminal Lys]”, the “time after which switch peptide signal (m/z = 764) started to decrease” value [5, 9] is reported as 1 h, the “time at which intensity of switch peptide and intermediate/functional peptide signals was similar” value [5, 9] is reported as 3 h and the “time at which switch peptide signal disappeared completely (near-complete conversion)” value [5, 9] is reported as 24 h.

In the case of “KSYIGR, where the SYIG unit indicates a Ser residue esterified with the Ac-YIG peptide sequence (Ac = acetyl)”, the cleaved bond [8] is reported as “Lys-Ser, 1 h”.

B1: trypsin: enzyme that cleaves peptide bonds on the C-terminal side of positively charged residues (protein, UniProt P00760 24-246, looked up)
Serine protease 1: IVGGYTCGANTVPYQVSLNSGYHFCGGSLINSQWVVSAAHCYKSGIQVRLGEDNINVVEGNEQFISASKSIVHPSYNSNTLNNDIMLIKLKSAASLNSRVASISLPTSCASAGTQCLISGWGNTKSSGTSYPDVLKCLKAPILSDSSCKSAYPGQITSNMFCAGYLEGGKDSCQGDSGGPVVCSGKLQGIVSWGSGCAQKNKPGVYTKVCNYVSWIKQTIASN
In the case of B1, the “cytotoxicity in cell viability studies” value [6] is reported as “no cytotoxicity”.
